For this test, the target named is T1, hmGluR1 receptor (Homo sapiens, UniProt Q13255).
T1 construct: expressed in transfected cells
Put plainly: IC50 determination: intracellular calcium mobilization (FLIPR) upon Quisqualate stimulation in CHO cells stably expressing hmGluR1. The test is classed as cell-based. As to conditions: against Quisqualate 1 μM (EC80). In short, it runs like this: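 CHO cells stably expressing hmGluR1 were kept overnight in DMEM high glucose with GPT and 1 mM pyruvate, then loaded 2 h with Calcium 3 dye.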
(In general: Calcium assays in cells follow changes in intracellular calcium, usually with a dye or a luminescent sensor.)

The mark [1] stands for this setting: FLIPR calcium mobilization, read-out: IC50 Class.
The mark [2] stands for this setting: class symbols, read-out: mGIuR 1 IC50.

Like-named read-outs stand apart in the source and are kept apart here.

T1 sequence (Q13255 19-1194): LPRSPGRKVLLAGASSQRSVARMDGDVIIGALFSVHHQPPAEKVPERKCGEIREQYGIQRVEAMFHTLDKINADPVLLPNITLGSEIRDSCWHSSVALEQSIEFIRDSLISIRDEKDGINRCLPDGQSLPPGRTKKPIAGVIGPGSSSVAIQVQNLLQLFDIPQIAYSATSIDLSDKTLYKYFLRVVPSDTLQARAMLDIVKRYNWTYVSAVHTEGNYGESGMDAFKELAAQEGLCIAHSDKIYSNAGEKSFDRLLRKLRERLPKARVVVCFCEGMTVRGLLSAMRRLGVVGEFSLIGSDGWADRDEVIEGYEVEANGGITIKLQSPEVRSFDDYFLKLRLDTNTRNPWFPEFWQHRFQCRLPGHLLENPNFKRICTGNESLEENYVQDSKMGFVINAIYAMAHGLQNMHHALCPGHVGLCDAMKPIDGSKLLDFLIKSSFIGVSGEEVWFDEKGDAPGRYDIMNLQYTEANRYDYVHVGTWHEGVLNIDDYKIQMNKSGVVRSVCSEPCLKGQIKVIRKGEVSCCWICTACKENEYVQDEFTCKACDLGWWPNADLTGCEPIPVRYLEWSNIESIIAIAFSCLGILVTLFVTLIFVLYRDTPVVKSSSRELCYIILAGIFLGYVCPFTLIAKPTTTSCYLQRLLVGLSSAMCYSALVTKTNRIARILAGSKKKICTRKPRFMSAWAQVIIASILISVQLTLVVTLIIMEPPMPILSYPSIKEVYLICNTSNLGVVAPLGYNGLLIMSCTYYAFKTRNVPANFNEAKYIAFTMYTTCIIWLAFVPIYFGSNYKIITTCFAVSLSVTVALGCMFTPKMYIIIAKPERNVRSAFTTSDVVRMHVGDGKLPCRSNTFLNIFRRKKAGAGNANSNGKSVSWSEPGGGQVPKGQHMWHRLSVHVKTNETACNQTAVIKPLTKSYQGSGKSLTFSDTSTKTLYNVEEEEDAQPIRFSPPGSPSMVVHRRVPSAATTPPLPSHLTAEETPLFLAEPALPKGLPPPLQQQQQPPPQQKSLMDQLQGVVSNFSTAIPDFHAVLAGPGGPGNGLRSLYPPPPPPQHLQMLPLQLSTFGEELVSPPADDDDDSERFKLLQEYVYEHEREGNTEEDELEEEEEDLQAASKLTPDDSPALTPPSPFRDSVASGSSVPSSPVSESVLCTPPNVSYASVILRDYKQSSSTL

In the case of `CC(O)CCNc1ccnc2sc3c(=O)n(-c4ccc(Br)cc4)cnc3c12` (centres unmarked) [28HO], the IC50 – broadly, the concentration that inhibits the measured activity by half – under setting [1] is under 50 nM.

For `CC(O)c1ccnc2sc3c(=O)n(-c4ccc(Cl)cc4)cnc3c12` (centres unmarked) [compound 185], the IC50 under setting [1] fell in the range of 50 to 150 nM.

On to `CCc1cc(N(C)C)c2c(n1)sc1c(=O)n(-c3ccc(C)cc3)cnc12` [87B], for which the IC50 under setting [2] lay within 50 to 150 nM.

Take `COCCCNc1ccnc2sc3c(=O)n(-c4ccc(F)cc4)cnc3c12` [28GS]: the IC50 under setting [1] was under 50 nM.

For `CCN(CC)c1ccnc2sc3c(=O)n(C4CCCCC4)cnc3c12` [28J], the IC50 under setting [2] fell in the range of 150 to 1000 nM.

Take `COc1ccc(Nc2ncnc3sc4c(=O)n(-c5ccccc5)cnc4c23)cc1` [95GI]: under setting [1], the IC50 lay within 150 to 1000 nM.

For `Cc1ccc(-n2cnc3c(sc4nccc(N(C)C)c43)c2=O)cc1F` [7DH], the half-maximal inhibitory concentration (IC50) is, setting by setting: (FLIPR calcium mobilization, read-out: mGluR1 IC50) 2.02 nM; under setting [2], under 50 nM.

Take `O=c1c2sc3nccc(NC4Cc5ccccc5C4)c3c2ncn1C1CCCCC1` [72D]: the IC50 under setting [2] was over 1000 nM.

For the compound `CN(C)c1ccnc2sc3c(=O)n(C4Cc5ccccc5C4)cnc3c12` [15Y], the IC50 under setting [2] is under 50 nM.

`CCOc1ccc(-n2cnc3c(sc4nccc(N(C)C)c43)c2=O)cc1` [7AE]: the IC50 under setting [2] is 150 to 1000 nM.

Values taken from patent US7989464B2, “mGluR1 antagonists as therapeutic agents” (Schering Corporation, priority 2004, dated 2011).
